Results published in US20240002405A1, “ANTIMICROBIAL COMPOUNDS, SYNTHESIS METHODS, AND USES THEREOF” (Ankh Life Sciences Limited, priority 2022, published 2024).
Converted amounts (≈) assume the structure as drawn. “And” between values parts separate entries of the source, which are not always exact repeats. Identical values can stand only once. Like-named read-outs stand apart in the source and are kept apart here.

Columns and labels:
E. coli (ATCC 25922) = experiment: Broth microdilution MIC assay, E. coli
Description: (§2) The concentration of compound required to visibly stop the growth of bacteria is known as minimum inhibitory concentration (MIC). Different concentrations of the compounds are tested for the exact same number of bacteria, and the growth is monitored with time.
(§3) Bacterial strains were purchased from the American Type Culture Collection (ATCC) for the studies.
(§4) The MIC assay procedure follows the guidelines set by the Clinical Laboratory Sciences Institute (CLSI).
(§5) To do this, bacteria were transferred from pure agar culture, aseptically transferred in 5 mL of Cation-Adjusted Mueller-Hinton Broth (CAMHB). The broth was incubated overnight at 35° C. to stationary phase to achieve a turbidity suspension. A spectrophotometer (SpectraMax ID5) was used to measure the turbidity (optical density—OD at 625 nm). The inoculum was prepared by adjusting the turbidity of overnight culture to 0.5 McFarland, which is equal to the defined number of bacteria 1×10^8 CFU/ml.
(§6) (b) Compound Dilution: All compounds used in the study were dissolved in sterile ultra-pure DMSO (VWR International, PA, USA) and maintained at −80° C. Stock solution of the compound was freshly prepared the day of use or is prepared from a frozen stock solution stored at −80° C. […] The compound solution was prepared at a desired concentration in DMSO, and 1/10 dilution was performed in a sterile CAMHB medium. This 10-fold dilution of stock solution was used for a 2-fold serial dilution in a 96-well plate to observe an inhibitory effect of the compound on bacterial growth. 100 μL of diluted drug solution was transferred to a first column of the 96-well plate. 50 μL of sterile CAMHB was transferred to each well from well 2 to well 12. Next, 50 μL was removed from well 1 and added to well 2. The contents from well 2 were mixed by pipetting up and down. Next, 50 µL were removed from well 2 and added to well 3. This process was continued till well 11 is reached. 50 μL was discarded from the well 11. Each compound concentration was tested in triplicate.
(§7) (c) Inoculation of 96-well plate: The same number of bacteria (1×10^5 CFU/mL) were prepared after 150-fold dilution of 0.5 McFarland inoculum and used to add in the wells of different drug concentrations. 50 μL of working inoculum was carefully added to each well, except the sterility well 12. Mixing is performed by gently flushing the inoculum in and out of the pipette tip four or five times, avoiding splashing and bubble formation.
(§8) (d) Incubation: Plates were incubated at 35° C. for 24 hours without shaking or agitation.
(§9) (e) Determination of MIC: After 18-24 hours of incubation, the plates were read for MIC. SpectraMax iD5 microplate reader was used to measure turbidity at different time points. Turbidity (OD) increases as the bacteria grow over time.

S. aureus (ATCC 29213) [1] = experiment: Broth microdilution MIC assay, S. aureus; conditions: for MIC: Staphylococcus aureus
Description: as §2, §3, §4, §5, §6, §7, §8, §9

S. aureus (ATCC 29213) [2] = experiment: Minimum bactericidal concentration (MBC) assay, S. aureus; assay type: cell-based; conditions: Staphylococcus aureus
Description: (§1) (f) Determination of MBC: MBC was determined by sampling all the macroscopically clear wells. Before sampling, the wells were gently mixed by flushing them with a pipette, and a 5 μL was removed and placed on an agar plate suitable for the growth of the microbe being tested. The agar plate was divided into three parts to test three trials of a single concentration. The sample was allowed to be absorbed into the agar for ˜30 minutes. The plates were then incubated for 24 hours at 37° C. After incubation, the plates were examined to determine the compound concentration at which 99.9% killing was achieved.

MRSA (ATCC 43300) = experiment: Minimum bactericidal concentration (MBC) assay, MRSA; assay type: cell-based; conditions: Staphylococcus aureus
Description: as §1

[3] = test system: engineered Salmonella typhimurium strain (umuC, β-galactosidase)
Description: The EBPI UMU-ChromoTest™ assay is used for the detection and quantification of genotoxicity of compounds and is based on the International Organization for Standardization protocol ISO 13829. The UMU-ChromoTest™ assay utilizes a native bacterial mechanism for the detection of compound genotoxicity. The bacteria used for the assay is an engineered Salmonella typhimurium strain developed to include a gene coding for the β-galactosidase (β-gal) enzyme tethered to the umuC, a damage response gene. DNA damage activates the SOS system to transcribe β-gal proportional to the level of SOS induction. The UMU-ChromoTest™ bacterial strain has modifications to increase sensitivity to genotoxins with (a) increased sensitivity for even limited damage, (b) modified outer membrane of the cell to increase permeability to exogenous materials, and (c) production of a color change on addition to chromogenic substrate (ONPG), which is a quantitative measure of genotoxic damage to bacterial DNA.
Rehydration of Dried Bacteria and Culture Growth: The bacteria were rehydrated and incubated at 37° C. for 16-18 hours. OD600 of the overnight culture should be 0.5 or at least above 0.1 at 600 nm.
Sample Preparation and Plate Setup: The dimer compounds were dissolved in DMSO. All dilution and controls were made in the solvent of 10% DMSO in sterile 0.85% saline. The pH of the compounds was adjusted to 7.0±0.2 before incubation with bacteria to facilitate bacterial growth and prevent degradation of ONPG later in the assay. The solutions of hydrochloric acid and sodium hydroxide were used to adjust pH with minimal addition volumes to prevent excessive sample dilution. Six samples were run at 4 dilutions at a time.
Preliminary Dilution of Bacteria: The overnight bacterial culture was diluted to 50% by performing a reinoculation with 5 mL of overnight growth and 5 mL of fresh Growth media. The reinoculated bacteria was inoculated for 1.5 hours at 37° C. The OD600 should be approximately 80% of the reading from overnight growth or slightly higher.
Preparation of Plate A: Distilled water (180 μL) was added to all wells, except for rows A to F, columns 1 to 3 and row H, columns 1 to 6. Rows A to F are used for 6 compounds per plate. The test compounds (360 μL) were added to the first three wells (three replicates) of the same microplate, such that wells 1-3 were a triplicate set of the highest concertation of test compound (360 μL). Wells 4-12 each contained 180 μL of distilled water. For dilution, half of the contents (180 μL) from wells 1-3 was transferred to wells 4-6 which makes a second triplicate set. For a third dilution, half of the contents from wells 4-6 were transferred to 7-9, and for the fourth triplicate set, half of the contents from wells 7-9 was transferred to 10-12. […]

[4] = test system: MRSA: S. aureus resistant to methicillin and oxacillin (ATCC 43300); experiment: Broth microdilution MIC assay, MRSA; conditions: Staphylococcus aureus, ATCC43300|MRSA, read-out: MIC (bacterial growth inhibition)
Description: as §2, §3, §4, §5, §6, §7, §8, §9

[5] = test system: gram positive and negative bacteria; experiment: Antibacterial testing against gram positive and negative bacteria; assay type: cell-based
Description: In addition to the harmaline dimers compounds, other bicyclic indole compounds (203, 233, 476/6 and 504/6,) were also tested against gram positive and negative bacteria. Particularly, the indole ethyl urea molecules 203, 233 and the tryptamide dimer molecules 476/6, 504/6, as shown below, were tested.

Solubility in DMSO = assay type: physicochemical
[6] = test system: Candida albicans (ATCC 18804); experiment: Antifungal broth microdilution MIC assay; assay type: cell-based; conditions: Candida albicans, ATCC18804, C. albicans, read-out: MIC (antifungal growth inhibition)
Description: Synthesized compounds were tested for antifungal activity towards the fungus strain, Candida albicans. […] Different concentrations of the compounds were tested for the exact same number of fungi, and the growth is monitored with time. MIC was determined by using the broth microdilution assay. Fungus strain, C. albicans was purchased from ATCC (ID: 18804) for the studies. […] This solution was used to make a working solution by preparing a 1:50 dilution, followed by a 1:20 dilution, with RPMI 1640 medium to obtain 2× test inoculum. The 2× inoculum is diluted 1:1 to achieve the final inoculum size (0.5×10^3 to 2.5×10^3 cells per mL). RPMI 1640 medium was used with L-glutamine and phenol red as a pH indicator but without bicarbonate and a glucose concentration of 0.2%. […] All plates were then read visually under normal laboratory lighting using a mirror viewer. Wells were scored for the growth compared to that of the drug free control well. Plates were read at 530 nm with subtraction of the blank from the reading of each well. Turbidity (OD) increases as the fungus grows over time.

E. faecalis (ATCC 29212) [7] = experiment: Minimum bactericidal concentration (MBC) assay, E. faecalis; assay type: cell-based, Enterococcus faecalis
Description: as §1

E. faecalis (ATCC 29212) [8] = experiment: Broth microdilution MIC assay, E. faecalis; conditions: Enterococcus faecalis, ATCC29212, read-out: MIC (bacterial growth inhibition)
Description: as §2, §3, §4, §5, §6, §7, §8, §9

[9] = test system: VREF: E. faecalis resistant to vancomycin (ATCC 51299); experiment: Broth microdilution MIC assay, VREF; conditions: Enterococcus faecalis, ATCC51299, read-out: MIC (bacterial growth inhibition)
Description: as §2, §3, §4, §5, §6, §7, §8, §9

VREF (ATCC 51299) = experiment: Minimum bactericidal concentration (MBC) assay, VREF; assay type: cell-based, Enterococcus faecalis; conditions: Enterococcus faecalis, ATCC51299, read-out: MBC (bactericidal activity)
Description: as §1

[10] = ATCC29213, read-out: MIC (bacterial growth inhibition)
[11] = ATCC29213, 24 h, S. aureus, read-out: MBC (kills bacteria)
[12] = ATCC29213, read-out: MIC (bacterial growth inhibition), S. aureus, time not given

For `COc1ccc2c3c([nH]c2c1)C(C)=NCC3` [Harmaline, reference compound], the MIC (E. coli (ATCC 25922); Escherichia coli, ATCC25922, read-out: MIC (bacterial growth inhibition)) was 707 µg/mL and 3300 µM and the MIC (S. aureus (ATCC 29213) [1]; [10]) was 707 µg/mL and 3300 µM.
With `COc1ccc2c3c([nH]c2c1)C(CC(CC1=NCCc2c1[nH]c1cc(OC)ccc21)c1ccc(C(F)(F)F)nc1)=NCC3` [GK585] the MBC (S. aureus (ATCC 29213) [2]; [11]) was over 146 µg/mL, the “MIC (bacterial growth inhibition)” value (E. coli (ATCC 25922); E. coli) was “No bacteriostatic or bactericidal activities were observed” and the MIC (S. aureus (ATCC 29213) [1]; [12]) was 73.2 µg/mL (≈ 125 µM). The MBC (MRSA (ATCC 43300); MRSA, read-out: MBC) was over 146 µg/mL, the MBC (MRSA (ATCC 43300); MRSA, read-out: MRSA-MBC) was over 250 µM and the genotoxicity ([3]; at 12.5 and 25 μM) was “no genotoxicity”. The genotoxicity ([3]; at 50 and 100 μM) was “interfered with testing protocols” and the MIC [4] was 73.2 µg/mL (≈ 125 µM).
For `COc1ccc2c(CCNC(=O)CCCC(=O)NCCc3c[nH]c4cc(OC)ccc34)c[nH]c2c1` [476/6], the bacteriostatic/bactericidal activity [5] was “no bacteriostatic/bactericidal activity observed”.
In the case of `COc1ccc2c(CCNC(=O)CC(C)(C)CC(=O)NCCc3c[nH]c4cc(OC)ccc34)c[nH]c2c1` [504/6], the bacteriostatic/bactericidal activity [5] is reported as “no bacteriostatic/bactericidal activity observed”.
For `COc1ccc2c3c([nH]c2c1)C(/C=C\c1cc(Br)ccc1/N=C/c1cc(Br)ccc1N)=NCC3` [GK578, 4-bromo-2-((E)-((4-bromo-2-((Z)-2-(7-methoxy-4,9-dihydro-3H-pyrido[3,4-b]indol-1-yl)vinyl)phenyl)imino)methyl)aniline], the “concentration showing significant reduction in growth” value (E. coli (ATCC 25922); E. coli) was 3.12 µg/mL and the inhibition in growth (E. coli (ATCC 25922); incubated with E. coli for 10-75 hrs) was 50%.
With `COc1ccc2[nH]cc(CCNC(N)=O)c2c1` [Compound 233] the bacteriostatic/bactericidal activity [5] was “no bacteriostatic/bactericidal activity observed”.
In the case of `COc1ccc2c3c([nH]c2c1)C(CC(CC1=NCCc2c1[nH]c1cc(OC)ccc21)c1cncs1)=NCC3` [GK524], the MBC (S. aureus (ATCC 29213) [2]; [11]) is reported as 65.5 µg/mL, the MBC (S. aureus (ATCC 29213) [2]; ATCC29213, S. aureus, read-out: MBC (bactericidal activity)) is reported as 125 µM and the bacteriostatic/bactericidal activity [5] is reported as “show bacteriostatic and bactericidal activity”. The “MIC (bacterial growth inhibition)” value (E. coli (ATCC 25922); E. coli) was “No bacteriostatic or bactericidal activities were observed”, the MIC (S. aureus (ATCC 29213) [1]; [12]) was 32.7 µg/mL (≈ 62.5 µM) and the “higher efficacy than harmaline” value (S. aureus (ATCC 29213) [1]; antibacterial efficacy versus harmaline) was about 15 fold. The “higher antibacterial activity than harmaline dimer without a substitution (GZ440/6)” value (S. aureus (ATCC 29213) [1]; versus GZ440/6) was 1.75 fold, the MBC (MRSA (ATCC 43300); MRSA, read-out: MBC) was 32.7 µg/mL and the MBC (MRSA (ATCC 43300); MRSA, read-out: MRSA-MBC) was 62.5 µM. For the same molecule, the MIC [4] was 16.4 µg/mL (≈ 31.2 µM), the “solubility in DMSO (time to dissolve)” value (Solubility in DMSO) was “instantly” and the MIC ([6]; after 24 hours of incubation) was 12.2 µg/mL (≈ 23.4 µM). The MIC ([6]; after 48 hours of incubation) was 25 µg/mL (≈ 47.7 µM).
In the case of `COc1ccc2c3c([nH]c2c1)C(/C=C/c1cc(C(=O)O)ccc1N)=NCC3` [GK360], the “concentration showing ~50% growth inhibition” value (E. coli (ATCC 25922); E. coli) is reported as 0.78 µg/mL, the MIC (S. aureus (ATCC 29213) [1]; [12]) is reported as 12.5 µg/mL (≈ 34.6 µM) and the MIC ([6]; after 24 hours of incubation) is reported as 50 µg/mL (≈ 138 µM).
In the case of `CN[C@H](CC(C)C)C(=O)N[C@H]1C(=O)N[C@@H](CC(N)=O)C(=O)N[C@H]2C(=O)N[C@H]3C(=O)N[C@H](C(=O)N[C@H](C(=O)O)c4cc(O)cc(O)c4-c4cc3ccc4O)[C@H](O)c3ccc(c(Cl)c3)Oc3cc2cc(c3O[C@@H]2O[C@H](CO)[C@@H](O)[C@H](O)[C@H]2O[C@H]2C[C@](C)(N)[C@H](O)[C@H](C)O2)Oc2ccc(cc2Cl)[C@H]1O` [Vancomycin, reference compound], the MBC (S. aureus (ATCC 29213) [2]; ATCC29213, 24 h, read-out: MBC (kills bacteria)) is reported as 1.56 µg/mL, the “MBC (kills bacteria)” value (E. faecalis (ATCC 29212) [7]) is reported as 6.25 µg/mL (≈ 4.31 µM) and the MIC (E. faecalis (ATCC 29212) [8]) is reported as 3.12 µg/mL (≈ 2.15 µM). It also gave an MIC [9] of 25 µg/mL (≈ 17.3 µM), an MIC (S. aureus (ATCC 29213) [1]; [10]) of 1.56 µg/mL (≈ 1.08 µM) and an MBC (MRSA (ATCC 43300)) of 1.56 µg/mL. It also gave an MBC (VREF (ATCC 51299)) of over 100 µg/mL and an MIC [4] of 1.56 µg/mL (≈ 1.08 µM).
With `COc1ccc2c3c([nH]c2c1)C(CC(CC1=NCCc2c1[nH]c1cc(OC)ccc21)c1ccccn1)=NCC3` [GK517.2] the MBC (S. aureus (ATCC 29213) [2]; [11]) was over 129 µg/mL, the “MIC (bacterial growth inhibition)” value (E. coli (ATCC 25922); E. coli) was “no activity was observed” and the MIC (S. aureus (ATCC 29213) [1]; ATCC29213, 24 h, read-out: MIC (bacterial growth inhibition), S. aureus, up to 24 hours) was 64.7 µg/mL (≈ 125 µM). It also gave an MBC (MRSA (ATCC 43300); MRSA, read-out: MBC) of over 129 µg/mL, an MBC (MRSA (ATCC 43300); MRSA, read-out: MRSA-MBC) of over 250 µM and an MIC ([4]; 24 h) of 64.7 µg/mL (≈ 125 µM).
